In patent US20240376056A1, “PHENYL ACETAMIDE BASED IL-17A MODULATORS AND USES THEREOF” (DiCE Alpha, Inc., priority 2021, published 2024):

target: T1, IL-17A/A (Homo sapiens, UniProt Q16552); experiment: HEK-Blue IL-17A/A inhibition assay (SEAP reporter); assay type: cell-based; conditions: HEK-Blue cells (HEK 293 expressing IL-17RA, IL-17RC, Act1); IL-17A/A stimulation; 20 hours; SEAP read at A630; 4-parameter fit
T1 construct: purchased Genscript Z03228
T1 sequence (Q16552 24-155): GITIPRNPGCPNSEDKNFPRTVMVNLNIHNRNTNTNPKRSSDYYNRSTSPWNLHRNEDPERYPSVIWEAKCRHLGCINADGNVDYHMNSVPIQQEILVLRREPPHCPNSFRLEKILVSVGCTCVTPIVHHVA
Protocol: The HEK-Blue #NC108637 […]. Cells were grown and prepared for assays according to the manufacturer's instructions. This cell line consists of HEK 293 cells that were designed to expressed IL-17R^A, IL-17RC, and the ActI adapter molecule, the combination of which. when stimulated by IL-17A/A activates a NFtcB promoter and drives expression of a recombinant Secreted Alkaline Phosphatase (SEAP) geneprotein. Media from the cells is then added to a development reagent (Quanti-Blue Substrate, Fisher #NC971 1613), and read at A630.
Compounds were titrated in DMSO. with a top final compound concentration of 10 uM, 1 uM, or 0.3 uM, and added to the cells immediately before adding IL-17A/A (Genscript #Z03228). The cells, compound, and IL-17A/A were then incubated for 20 hours before media was removed for SEAP analysis. The resulting inhibition curve was then analyzed using Graphpad Prism 7.0, and IC50 values were determined using a 4-parameter nonlinear fit. DMSO was added to a universal final concentration of 0.1% to optimze background.

| Compound | IC50 |
| --- | --- |
| CC(C)n1nccc1C(=O)N[C@H](C(=O)Nc1ccc([C@H](C)C(=O)NC(C2CC2)C(F)(F)F)cc1F)C(C1CC1)C1CC1 (stereo partly drawn) [Compound 26, N-((2S)-1,1-dicyclopropyl-3-((4-((2S)-1-((1-cyclopropyl-2,2,2-trifluoroethyl)amino)-1-oxopropan-2-yl)-2-fluorophenyl)amino)-3-oxopropan-2-yl)-1-isopropyl-1H-pyrazole-5-carboxamide] | 100 to 1000 nM |
| CC(C)n1nccc1C(=O)N[C@H](C(=O)Nc1ccc([C@H](C)C(=O)N2CCOc3ccccc3C2C(F)(F)F)cc1F)C(C1CC1)C1CC1 (stereo partly drawn) [Compound 56, N-((2S)-1,1-dicyclopropyl-3-((2-fluoro-4-((2S)-1-oxo-1-(5-(trifluoromethyl)-2,3-dihydrobenzo[f][1,4]oxazepin-4(5H)-yl)propan-2-yl)phenyl)amino)-3-oxopropan-2-yl)-1-isopropyl-1H-pyrazole-5-carboxamide] | 100 to 1000 nM |
| CC(C)n1nccc1C(=O)N[C@H](C(=O)Nc1ccc([C@H](C)C(=O)N2CCOCC2C(F)(F)F)cc1F)C(C1CC1)C1CC1 (single isomer, unassigned) [Compound 18] | < 100 nM |
| CNCCN(CC(F)(F)F)C(=O)[C@@H](C)c1ccc(NC(=O)[C@@H](NC(=O)c2ccnn2C(C)C)C(C2CC2)C2CC2)c(F)c1 [Compound 22, N-((S)-1,1-dicyclopropyl-3-((2-fluoro-4-((S)-1-((2-(methylamino)ethyl)(2,2,2-trifluoroethyl)amino)-1-oxopropan-2-yl)phenyl)amino)-3-oxopropan-2-yl)-1-isopropyl-1H-pyrazole-5-carboxamide] | 100 to 1000 nM |
| CC(C)n1nccc1C(=O)N[C@H](C(=O)Nc1ccc([C@H](C)C(=O)N2C[C@@H](F)[C@@H](F)C2)cc1F)C(C1CC1)C1CC1 [Compound 40, N-((S)-1,1-dicyclopropyl-3-((4-((S)-1-((3S,4R)-3,4-difluoropyrrolidin-1-yl)-1-oxopropan-2-yl)-2-fluorophenyl)amino)-3-oxopropan-2-yl)-1-isopropyl-1H-pyrazole-5-carboxamide] | 100 to 1000 nM |
| CC(C)n1nccc1C(=O)N[C@H](C(=O)Nc1ccc([C@H](C)C(=O)N2CCCCC2C(F)(F)F)cc1F)C(C1CC1)C1CC1 (single isomer, unassigned) [Compound 21] | 100 to 1000 nM |
| CC(C)n1nccc1C(=O)N[C@H](C(=O)Nc1ccc([C@H](C)C(=O)N2CCCCC2C(F)(F)F)cc1F)C(C1CC1)C1CC1 (single isomer, unassigned) [Compound 20] | 100 to 1000 nM |
| CC(C)n1nccc1C(=O)N[C@H](C(=O)Nc1ccc([C@H](C)C(=O)NC(Cc2ccccn2)C(F)(F)F)cc1F)C(C1CC1)C1CC1 (stereo partly drawn) [Compound 27, N-((2S)-1,1-dicyclopropyl-3-((2-fluoro-4-((2S)-1-oxo-1-((1,1,1-trifluoro-3-(pyridin-2-yl)propan-2-yl)amino)propan-2-yl)phenyl)amino)-3-oxopropan-2-yl)-1-isopropyl-1H-pyrazole-5-carboxamide] | > 1000 nM |
| CCn1nccc1C(=O)N[C@H](C(=O)Nc1ccc(CC(=O)N(C)CC(F)(F)F)cc1F)C1CCCCCC1 [Compound 1, (S)-N-(1-cycloheptyl-2-((2-fluoro-4-(2-(methyl(2,2,2-trifluoroethyl)amino)-2-oxoethyl)phenyl)amino)-2-oxoethyl)-1-ethyl-1H-pyrazole-5-carboxamide] | 100 to 1000 nM |
| CC(C)n1nccc1C(=O)N[C@H](C(=O)Nc1ccc([C@H](C)C(=O)NCC(F)(F)C(F)(F)F)cc1F)C(C1CC1)C1CC1 [Compound 44, N-((S)-1,1-dicyclopropyl-3-((2-fluoro-4-((S)-1-oxo-1-((2,2,3,3,3-pentafluoropropyl)amino)propan-2-yl)phenyl)amino)-3-oxopropan-2-yl)-1-isopropyl-1H-pyrazole-5-carboxamide] | 100 to 1000 nM |
| CCN(CC(F)(F)F)C(=O)C(C)c1ccc(NC(=O)[C@@H](NC(=O)c2ccnn2CC)C2CCCCCC2)c(F)c1 (single isomer, unassigned) [Compound 69] | > 1000 nM |
| CC(C)n1nccc1C(=O)N[C@H](C(=O)Nc1ccc([C@H](C)C(=O)N2CCN(C(=O)OC(C)(C)C)CC2C(F)(F)F)cc1F)C(C1CC1)C1CC1 (stereo partly drawn) [Compound 39, tert-butyl 4-((S)-2-(4-((S)-3,3-dicyclopropyl-2-(1-isopropyl-1H-pyrazole-5-carboxamido)propanamido)-3-fluorophenyl)propanoyl)-3-(trifluoromethyl)piperazine-1-carboxylate] | > 1000 nM |
| CCn1nccc1C(=O)N[C@H](C(=O)Nc1ccc([C@H](C)C(=O)N(CCO)CC(F)(F)F)cc1F)C(C1CC1)C1CC1 [Compound 10, N-((S)-1,1-dicyclopropyl-3-((2-fluoro-4-((S)-1-((2-hydroxyethyl)(2,2,2-trifluoroethyl)amino)-1-oxopropan-2-yl)phenyl)amino)-3-oxopropan-2-yl)-1-ethyl-1H-pyrazole-5-carboxamide] | 100 to 1000 nM |

Now from value to compound:

| IC50 | Compound |
| --- | --- |
| 100 to 1000 nM | CCc1nonc1C(=O)N[C@H](C(=O)Nc1cc(C)c(C(C)C(=O)N(C)CC(F)(F)F)cc1F)C1CCC(F)(F)CC1 (stereo partly drawn) [Compound 225] |
| > 1000 nM | CCn1nccc1C(=O)N[C@H](C(=O)Nc1cc(C)c(C(C)C(=O)NCC(F)(F)F)cc1F)[C@H]1CC[C@H](C)CC1 (stereo partly drawn) [Compound 201] |
| 100 to 1000 nM | CC(C(=O)NC1CCC1(F)F)c1cc(F)c(NC(=O)[C@@H](NC(=O)c2ccnn2C(C)C)C(C2CC2)C2CC2)cc1C(F)(F)F (single isomer, unassigned) [Compound 230] |
| 100 to 1000 nM | CC(C(=O)NCC(F)(F)F)c1cc(F)c(NC(=O)[C@@H](NC(=O)c2ccnn2C(C)C)C(C2CC2)C2CC2)cc1CN (stereo partly drawn) [Compound 119, N-((2S)-1-((5-(aminomethyl)-2-fluoro-4-(1-oxo-1-((2,2,2-trifluoroethyl)amino)propan-2-yl)phenyl)amino)-3,3-dicyclopropyl-1-oxopropan-2-yl)-1-isopropyl-1H-pyrazole-5-carboxamide] |
| > 1000 nM | COCc1cc(NC(=O)[C@@H](NC(=O)c2ccnn2C(C)C)C(C2CC2)C2CC2)c(F)cc1C(C)C(=O)NCC(F)(F)F (single isomer, unassigned) [Compound 125] |
| 100 to 1000 nM | CCn1nccc1C(=O)N[C@H](C(=O)Nc1cc(C(F)(F)F)c(C(C)C(=O)N2CC(F)(F)CC2C(F)(F)F)cc1F)C(C1CC1)C1CC1 (stereo partly drawn) [Compound 239] |
| 100 to 1000 nM | CCOc1cc(NC(=O)[C@@H](NC(=O)c2ccnn2C(C)C)C(C2CC2)C2CC2)c(F)cc1C(C)C(=O)NCC(F)(F)F (stereo partly drawn) [Compound 194] |
| 100 to 1000 nM | CC(C)n1nccc1C(=O)N[C@H](C(=O)Nc1ccc([C@H](C)C(=O)NC(C2CCOC2)C(F)(F)F)cc1F)C(C1CC1)C1CC1 (single isomer, unassigned) [Compound 152] |
| 100 to 1000 nM | CC(C)n1nccc1C(=O)N[C@H](C(=O)Nc1ccc(C(CO)C(=O)NCC(F)(F)F)cc1F)C(C1CC1)C1CC1 (stereo partly drawn) [Compound 168, N-((2S)-1.1-dicyclopropyl-3-((2-fluoro-4-(3-hydroay-1-oxo-11-((2,2,2-trifluoroethyl)amino)propan-2-yl)phenyl)amino)-3-oxopropan-2-yl)-1-isopropyl-1H-pyrazole-5-carboxamide] |
| < 100 nM | CCn1nccc1C(=O)N[C@H](C(=O)Nc1ccc(C(COC)C(=O)N(C)CC(F)(F)F)cc1F)C1CCCCCC1 (single isomer, unassigned) [Compound 103] |
| 100 to 1000 nM | CC(C)n1nccc1C(=O)N[C@H](C(=O)Nc1cc(CN(C)C)c([C@H](C)C(=O)NCC(F)(F)F)cc1F)C(C1CC1)C1CC1 [Compound 165, N-((S)-1,1-dicyclopropyl-3-((5-((dimethylamino)methyl)-2-fluoro-4-((S)-1-oxo-1-((2,2,2-trifluoroethyl)amino)propan-2-yl)phenyl)amino)-3-oxopropan-2-yl)-1-isopropyl-1H-pyrazole-5-carboxamide] |
| > 1000 nM | CCn1ncc(F)c1C(=O)N[C@H](C(=O)Nc1ccc([C@H](C)C(=O)NCC(F)(F)F)cc1F)C(C1CC1)C1CC1 [Compound 83, N-((S)-1,1-dicyclopropyl-3-((2-fluoro-4-((S)-1-oxo-1-((2,2,2-trifluoroethyl)amino)propan-2-yl)phenyl)amino)-3-oxopropan-2-yl)-1-ethyl-4-fluoro-1H-pyrazole-5-carboxamide] |
| > 1000 nM | CNc1cc(NC(=O)[C@@H](NC(=O)c2ccnn2C(C)C)C(C2CC2)C2CC2)c(F)cc1C(C)C(=O)NCC(F)(F)F (stereo partly drawn) [Compound 196] |
| 100 to 1000 nM | COC(=O)Nc1cc(NC(=O)[C@@H](NC(=O)c2ccnn2C(C)C)C(C2CC2)C2CC2)c(F)cc1C(C)C(=O)NCC(F)(F)F (stereo partly drawn) [Compound 249] |
| 100 to 1000 nM | CCn1nccc1C(=O)N[C@H](C(=O)Nc1ccc(C(C)C(=O)N2CCC(C(F)(F)F)C2)cc1F)C(C1CC1)C1CC1 (stereo partly drawn) [Compound 221] |
| > 1000 nM | CCn1nccc1C(=O)N[C@H](C(=O)Nc1c(F)cc(C(C)C(=O)NCC(F)(F)F)cc1F)C(C1CC1)C1CC1 (single isomer, unassigned) [Compound 170] |
| < 100 nM | CC(C(=O)NCC(F)(F)F)c1cc(F)c(NC(=O)[C@@H](NC(=O)c2ccnn2C(C)C)C(C2CC2)C2CC2)cc1N1CCOCC1 (stereo partly drawn) [Compound 188] |
